Source: patent US20250163061A1 (Bala Therapeutics, Inc., priority 2021, published 2025)

Assays:
[1] = molecular target: recombinant MEN1 protein (Homo sapiens (Human), UniProt O00255); assay: Primary fluorescence polarization assay of MEN1 activity inhibition (MEN1 / MLL4-43 peptide interaction); type: binding; conditions: MEN1 10 nM, fluorescein-labeled MLL4-43 peptide 0.5 nM
Description: Compound activity was determined using recombinant MEN1 protein (Creativebiomart, Cat #MEN1-35H) and a custom fluorescein-labeled MLL4-43 peptide (Eton Bioscience Inc.). Interaction between MEN1 and MLL4-43 in the presence of compounds was determined by fluorescence polarization assay using a Microplate Reader ClarioStar Plus. The reaction was carried out in assay buffer (50 mM TRIS-HCl pH 7.4-7.6, 50 mM NaCl, 1 mM DTT, 0.1 mg/ml BSA). The compounds were dispensed on a 384 well Diamond Well Plate (Axigen, Cat #P-384-120SQ-C-S) using the Biomek FX liquid handling system at 100× solutions of compounds in DMSO. 2×MEN1 mix (final concentration of MEN1 10 nM) was prepared in Assay buffer and 10 μl of mixture per well was added into 384 w white Reaction plate with NBS (Corning, Cat #4513). 10 μl of Assay buffer w/o MEN1 was used for negative control. Plates were centrifuged for 1 min at 100 g. Next step the Compounds were added to Reaction plate using Biomek station via following steps: 3 μl of 100× compounds (in DMSO) were mixed thoroughly with 27 μl Assay Buffer, then 2 μl of this mixture was added to Reaction plate with 10 μl of MEN1 mix. Plates were centrifuged for 1 min at 100 g and incubated for 20 min at room temperature. Next 8 μL of MLL4-43 peptide per well was added to final concentration of MLL 0.5 nM. Plates were incubated for 1 hour at room temperature. Then fluorescence polarization was measured using Microplate Reader.

[2] = system: MOLM-13; assay: MOLM-13 cellular growth inhibition assay (CellTiter-Glo); type: cell-based; conditions: Homo sapiens, 168 h, MOLM-13 cells, 7 days of incubation
Description: (§1) HEK293 (Institute of Cytology Russian Academy of Science), MV4-11 (ATCC, CRL-9591), MOLM-13 (AcceGen, ABC-TC517S) were seeded at a density of 500 cells per well (HEK293) and 2000 cells per well (MV4-11, MOLM-13) in a 384-well clear bottom plate (Greiner Cat #781090) in 45 μl total volume of DMEM (PanEco, Cat #C420, Russia) or RPMI (PanEco, Cat #C330, Russia) with 10% FBS (HyClone Cat #SV30160.03). HEK293 were allowed to adhere overnight at 37° C., 5% CO2. 500× compounds solutions in DMSO (Sigma Cat #D2650) were prepared into Cmpnds plate (Diamond Well Plate, Axigen, Cat #P-384-120SQ-C-S) and DMSO only control was included. 1 μl of 500× compounds (Cmpnds plate) was added to 49 μl of culture medium into Dilution plate (Diamond Well Plate, Axigen, Cat #P-384-120SQ-C-S), mixed and then 5 μl of 10× compounds solutions were transferred to cells followed by centrifugation at 100 g for 1 min. Final DMSO concentration was 0.2%. After 3 days of incubation, 10 μl of 1× compounds were added to cells. After 7 days of incubation, 12 μl of CellTiter-Glo (Promega, CAT #G7572) were added to the cells, plate was centrifuged at 100 g for 1 min and luminescence signal was measured using Microplate Reader (CLARIOStar).

[3] = HEK293 cellular growth inhibition assay (CellTiter-Glo); type: cell-based; conditions: human, HEK293 cells, 7 days of incubation
Description: as §1

[4] = system: MV4-11; assay: MV4-11 cellular growth inhibition assay (CellTiter-Glo); type: cell-based; conditions: Homo sapiens, 168 h, MV4-11 cells, 7 days of incubation
Description: as §1

Chain of recombinant MEN1 protein (O00255 whole entry): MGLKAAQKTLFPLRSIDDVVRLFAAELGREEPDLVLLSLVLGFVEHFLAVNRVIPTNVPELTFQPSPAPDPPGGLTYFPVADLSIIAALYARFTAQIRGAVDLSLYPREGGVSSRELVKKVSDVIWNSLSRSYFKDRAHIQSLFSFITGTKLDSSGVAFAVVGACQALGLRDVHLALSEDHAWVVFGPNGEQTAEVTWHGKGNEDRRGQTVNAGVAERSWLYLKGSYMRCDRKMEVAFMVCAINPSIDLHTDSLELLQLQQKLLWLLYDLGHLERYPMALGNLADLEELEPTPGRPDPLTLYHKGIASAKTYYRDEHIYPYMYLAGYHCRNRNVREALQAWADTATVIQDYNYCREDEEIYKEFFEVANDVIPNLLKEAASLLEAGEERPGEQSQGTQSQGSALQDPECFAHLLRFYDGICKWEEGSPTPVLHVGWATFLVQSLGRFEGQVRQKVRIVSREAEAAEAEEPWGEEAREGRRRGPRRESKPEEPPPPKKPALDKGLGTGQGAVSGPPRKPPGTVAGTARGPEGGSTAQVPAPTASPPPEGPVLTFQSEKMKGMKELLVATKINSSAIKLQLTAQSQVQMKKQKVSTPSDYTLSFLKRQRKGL

Row | EC50 [1] | SMILES | CC50 [2] | CC50 at 7 days [3] | CC50 [4]
1 | 75 to 500 nM | Cc1c(CN2CCC3(CC2)CN(c2ncnc4ccc(CC(F)(F)F)cc24)C3)ccc2c1cc(C#N)n2CC1CN(CC(C)C)C(=O)CO1 (centres unmarked) [Compound 31, 1-[(4-Isobutyl-5-oxomorpholin-2-yl)methyl]-4-methyl-5-({2-[6-(2,2,2-trifluoroethyl)quinazolin-4-yl]-2,7-diazaspiro[3.5]non-7-yl}methyl)-1H-indole-2-carbonitrile] |  |  | 
2 | 1000 to 5000 nM | Cc1c(CN2CCC3(CC2)CN(c2ncnc4ccc(CC(F)(F)F)cc24)C3)ccc2c1cc(C#N)n2CC1CN(C)C(=O)CN1 (centres unmarked) [Compound 46, 4-methyl-1-[(4-methyl-5-oxo-piperazin-2-yl)methyl]-5-[[2-[6-(2,2,2-trifluoroethyl)quinazolin-4-yl]-2,7-diazaspiro[3.5]nonan-7-yl]methyl]indole-2-carbonitrile] |  |  | 
3 | 1000 to 5000 nM | Cc1c(CN2CCC3(CC2)CN(c2ncnc4ccc(CC(F)(F)F)cc24)C3)ccc2c1cc(C#N)n2CC1CNC(=O)N1 (centres unmarked) [Compound 6, 4-Methyl-1-[(2-oxoimidazolidin-4-yl)methyl]-5-({2-[6-(2,2,2-trifluoroethyl)quinazolin-4-yl]-2,7-diazaspiro[3.5]non-7-yl}methyl)-1H-indole-2-carbonitrile] |  |  | 
4 | 75 to 500 nM | CCS(=O)(=O)N[C@H]1CC[C@H](Cn2c(C#N)cc3c(C)c(CN4CCC5(CC4)CN(c4ncnc6ccc(CC(F)(F)F)cc46)C5)ccc32)CC1 [Compound 41] |  |  | 
5 | 75 to 500 nM | Cc1c(CN2CCC3(CC2)CN(c2ncnc4ccc(CC(F)(F)F)cc24)C3)ccc2c1cc(C#N)n2CC1CN(S(C)(=O)=O)CCO1 (centres unmarked) [Compound 9] |  |  | 
6 | 75 to 500 nM | Cc1c(CN2CCC3(CC2)CN(c2ncnc4ccc(CC(F)(F)F)cc24)C3)ccc2c1cc(C#N)n2C[C@@H]1CCC(=O)N[C@H]1c1ccccc1 [Compound 100, 4-Methyl-1-{[(2R,3S)-6-oxo-2-phenylpiperidin-3-yl]methyl}-5-({2-[6-(2,2,2-trifluoroethyl)quinazolin-4-yl]-2,7-diazaspiro[3.5]non-7-yl}methyl)-1H-indole-2-carbonitrile] |  |  | 
7 | ≤ 75 nM | Cc1c(CN2CCC3(CC2)CN(c2cnnc4ccc(CC(F)(F)F)cc24)C3)ccc2c1cc(C#N)n2CC(C)N1CCN(S(C)(=O)=O)CC1 (centres unmarked) [Compound 80, 4-Methyl-1-[2-(4-methylsulfonylpiperazin-1-yl)propyl]-5-[[2-[6-(2,2,2-trifluoroethyl)cinnolin-4-yl]-2,7-diazaspiro[3.5]nonan-7-yl]methyl]indole-2-carbonitrile] | 1000 to 5000 nM | 5000 to 10000 nM | 100 to 500 nM
8 | ≤ 75 nM | CCS(=O)(=O)N1CCCN(C(C)Cn2c(C#N)cc3c(C)c(CN4CCC5(CC4)CN(c4ncnc6ccc(CC(F)(F)F)cc46)C5)ccc32)CC1 (centres unmarked) [Compound 53, 1-[2-(4-Ethylsulfonyl-1,4-diazepan-1-yl)propyl]-4-methyl-5-[[2-[6-(2,2,2-trifluoroethyl)quinazolin-4-yl]-2,7-diazaspiro[3.5]nonan-7-yl]methyl]indole-2-carbonitrile] | 100 to 500 nM | 5000 to 10000 nM | ≤ 100 nM
